{"source": "paper PMC12856317", "about": "“A reversible feedback mechanism regulating mitochondrial heme synthesis” (The Journal of Biological Chemistry, 2025)", "target": "T1, WT holoALAS2 (residues 54–587) (Homo sapiens, UniProt P22557)", "T1 construct": "His6-SUMO (N, cleaved yes); made in house; host or cells: Escherichia coli BL21-Codon Plus (DE3)-RIL", "T1 sequence (P22557 54-587)": "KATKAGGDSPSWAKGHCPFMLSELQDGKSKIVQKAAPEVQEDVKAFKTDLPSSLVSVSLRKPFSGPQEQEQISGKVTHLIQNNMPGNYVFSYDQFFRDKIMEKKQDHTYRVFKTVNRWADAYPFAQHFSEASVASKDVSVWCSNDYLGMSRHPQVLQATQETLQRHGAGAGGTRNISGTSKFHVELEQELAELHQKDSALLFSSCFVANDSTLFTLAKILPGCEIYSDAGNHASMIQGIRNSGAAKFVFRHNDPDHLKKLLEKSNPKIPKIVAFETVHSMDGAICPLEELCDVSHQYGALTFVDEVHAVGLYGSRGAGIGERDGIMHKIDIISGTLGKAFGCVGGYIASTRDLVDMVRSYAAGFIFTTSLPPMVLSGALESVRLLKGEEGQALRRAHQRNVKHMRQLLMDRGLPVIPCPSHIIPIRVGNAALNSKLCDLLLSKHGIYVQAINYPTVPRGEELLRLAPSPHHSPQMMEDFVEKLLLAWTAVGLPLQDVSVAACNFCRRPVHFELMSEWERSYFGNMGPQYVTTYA", "assay": "Succinyl-CoA:hemin competition analysis", "format": "biochemical", "conditions": "succinyl-CoA varied; for Km: 95% confidence interval in brackets", "procedure": "A discontinuous colorimetric activity assay adapted from Shoolingin-Jordan et al. and Bailey et al. was used to measure the enzyme activity ([48], [74]). The reaction was initiated by adding 100 nM purified enzyme to 50 mM potassium phosphate, pH 7.0, 10 mM MgCl2, 1 mM DTT, 100 mM glycine, and 300 μM succinyl-CoA (175 μl total). The reaction was incubated at 37 °C for 15 min and terminated with 100 μl of cold 10% trichloroacetic acid. The precipitated protein was removed by centrifugation for 5 min at 13,000g, and 240 μl of the supernatant was mixed with 240 μl of 1 M sodium acetate, pH 4.6. To derivatize ALA, 20 μl of acetylacetone was added to the mixture and boiled at 100 °C for 10 min. After the sample was cooled for 20 min, 100 μl aliquots were transferred into a clear 96-well plate in triplicate. An equal volume of Ehrlich’s reagent (p-Dimethylaminobenzaldehyde, DMAB) was added to each well, and the absorbance was monitored at 553 nm using a microplate reader (Thermo Fisher Scientific). The peak absorbance value was converted to molar ALA concentration using ε553 = 60,400 M^−1 cm^−1.\nFor inhibitor competition experiments, the apoenzymes were preincubated with hemin or PLP (0–100 μM) for 15 min at 25 °C in the dark before initiating the reaction. Next, either PLP or hemin (0–100 μM) was titrated into the reactions to measure enzyme activation after hemin inhibition or enzyme inhibition of the PLP-treated apoenzyme, respectively. For succinyl-CoA:hemin competition analyses, the WT holoenzyme was mixed with hemin (0, 25, 50, and 100 μM), followed by the addition of increasing succinyl-CoA concentrations (0, 25, 50, 100, 250, and 500 μM). All experiments were performed with a minimum of three biological replicates, each with three technical replicates. Data were fit using nonlinear regression to generate an agonist dose-response curve (EC50) or an inhibitor dose-response curve (IC50). Lineweaver-Burk analysis was performed using the resulting kinetic parameters (Vmax and KM) in GraphPad Prism 10.", "data": [{"substance": "succinyl-CoA", "values": [{"measurement": "Vmax", "setting": "hemin 0 μM", "value": "337.15 [445.63, 271.22] nmol/min/mg"}, {"measurement": "Km", "setting": "hemin 0 μM", "value": 178, "unit": "µM"}, {"measurement": "Vmax", "setting": "hemin 25 μM", "value": "109.04 [132.82, 92.51] nmol/min/mg"}, {"measurement": "Km", "setting": "hemin 25 μM", "value": 54.8, "unit": "µM"}, {"measurement": "Vmax", "setting": "hemin 50 μM", "value": "45.98 [63.13, 36.15] nmol/min/mg"}, {"measurement": "Km", "setting": "hemin 50 μM", "value": 46.2, "unit": "µM"}, {"measurement": "Vmax", "setting": "hemin 100 μM", "value": "37.50 [60.98, 27.07] nmol/min/mg"}, {"measurement": "Km", "setting": "hemin 100 μM", "value": 39.2, "unit": "µM"}]}]}
